Laboratory results from PMC11080019, “Synthesis and Biological Profiling of Quinolino-Fused 7-Deazapurine Nucleosides” (ACS Omega, 2024).
Counter-ions that a name gives are not always drawn.

Target: T1, T7 RNA polymerase (Escherichia phage T7, UniProt P00573)
T1 construct: purchased New England Biolabs
Experiment: In vitro transcription (IVT) with T7 RNA polymerase, 35DNA_A7 template
Type: biochemical
Conditions: 7.5 mM NTPs, 37 °C, 16 h, 35-mer RNA with seven modifications
Experimental: A^QTP was then used as a substrate for the T7 RNA polymerase in the in vitro transcription (IVT) experiments.[30] We used 35DNA_A7 DNA template encoding for 35-mer RNA containing seven A^Q modifications (Table 4). We used the T7 High Yield RNA Synthesis Kit with a high concentration of NTPs (7.5 mM each) but without any further additives. The reaction time at 37 °C was 16 h. The positive control experiment was performed with all four natural NTPs giving nonmodified transcript 35RNA_A7 (Figure 2, lane 2). The negative control contained only the natural CTP, GTP, and UTP in the absence of ATP (Figure 2, lane 3). The real IVT experiment was performed with A^QTP and three natural NTPs (Figure 2, lane 4). The transcription products were visualized by denaturing 20% denaturing PAGE (Figure 2) and characterized by LC–MS (see Figures S1 and S2 in the SI). […]
Aliquots of the first three reactions (50 ng) were separated by denaturating PAGE (20%) with urea at 23 mV for 1 h and visualized by fluorescence imaging.
Aliquots of the positive control (35RNA_A7) and the modified RNA (35RNA_A^Q7) were analyzed by UPLC-ESI-MS confirming the full transcription without any misincorporation (see Figures S1 and S2 in Supporting Information).

T1 sequence (P00573 whole entry): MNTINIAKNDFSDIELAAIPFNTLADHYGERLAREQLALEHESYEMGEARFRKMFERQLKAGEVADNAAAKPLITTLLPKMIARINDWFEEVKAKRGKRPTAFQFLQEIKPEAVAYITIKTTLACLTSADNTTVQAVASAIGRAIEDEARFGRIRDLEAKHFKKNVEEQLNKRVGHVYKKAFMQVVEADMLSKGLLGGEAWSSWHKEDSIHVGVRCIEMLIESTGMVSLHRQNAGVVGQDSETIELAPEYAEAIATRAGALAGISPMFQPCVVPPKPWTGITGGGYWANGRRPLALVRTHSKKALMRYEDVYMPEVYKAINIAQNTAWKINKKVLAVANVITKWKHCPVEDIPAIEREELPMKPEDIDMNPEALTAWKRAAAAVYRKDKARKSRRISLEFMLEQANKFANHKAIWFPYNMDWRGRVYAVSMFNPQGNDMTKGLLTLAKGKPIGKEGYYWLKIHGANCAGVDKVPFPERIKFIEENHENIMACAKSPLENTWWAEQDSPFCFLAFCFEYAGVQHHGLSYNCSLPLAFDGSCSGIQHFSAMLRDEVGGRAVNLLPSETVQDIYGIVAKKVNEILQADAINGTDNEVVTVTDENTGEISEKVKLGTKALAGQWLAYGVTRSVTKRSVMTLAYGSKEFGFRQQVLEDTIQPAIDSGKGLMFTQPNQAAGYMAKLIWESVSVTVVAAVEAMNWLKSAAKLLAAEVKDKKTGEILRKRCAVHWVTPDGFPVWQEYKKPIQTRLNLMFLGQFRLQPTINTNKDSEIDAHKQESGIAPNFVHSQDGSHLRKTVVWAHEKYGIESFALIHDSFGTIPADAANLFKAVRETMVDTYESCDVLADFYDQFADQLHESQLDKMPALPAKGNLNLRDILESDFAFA

Nc1ncnc2c1c1c3cccnc3ccc1n2[C@@H]1O[C@H](COP(=O)(O)OP(=O)(O)OP(=O)(O)O)[C@@H](O)[C@H]1O [A^QTP, 11-Amino-7-(β-D-ribofuranosyl)pyrimido[5′,4′:4,5]pyrrolo[3,2-f]quinoline 5′-O-Triphosphate Bistriethylammonium Salt]
substrate activity for T7 RNA polymerase in in vitro transcription (in words): moderately efficient substrate
